A word on the Km: it is the substrate concentration at which the rate is half of its maximum. Usually Ki stands for the equilibrium dissociation constant of an inhibitor or competing ligand from its target. Read a high Ki as lower affinity.

Data on seven compounds can be found in patent US5489675A, “Disaccharide sialidase substrates and inhibitors” (priority 1993, dated 1996).

Test [1] concerns the target T1, Arthrobacter ureafaciens neuraminidase (Paenarthrobacter ureafaciens, UniProt Q5W7Q2).
T1 sequence (Q5W7Q2 39-990): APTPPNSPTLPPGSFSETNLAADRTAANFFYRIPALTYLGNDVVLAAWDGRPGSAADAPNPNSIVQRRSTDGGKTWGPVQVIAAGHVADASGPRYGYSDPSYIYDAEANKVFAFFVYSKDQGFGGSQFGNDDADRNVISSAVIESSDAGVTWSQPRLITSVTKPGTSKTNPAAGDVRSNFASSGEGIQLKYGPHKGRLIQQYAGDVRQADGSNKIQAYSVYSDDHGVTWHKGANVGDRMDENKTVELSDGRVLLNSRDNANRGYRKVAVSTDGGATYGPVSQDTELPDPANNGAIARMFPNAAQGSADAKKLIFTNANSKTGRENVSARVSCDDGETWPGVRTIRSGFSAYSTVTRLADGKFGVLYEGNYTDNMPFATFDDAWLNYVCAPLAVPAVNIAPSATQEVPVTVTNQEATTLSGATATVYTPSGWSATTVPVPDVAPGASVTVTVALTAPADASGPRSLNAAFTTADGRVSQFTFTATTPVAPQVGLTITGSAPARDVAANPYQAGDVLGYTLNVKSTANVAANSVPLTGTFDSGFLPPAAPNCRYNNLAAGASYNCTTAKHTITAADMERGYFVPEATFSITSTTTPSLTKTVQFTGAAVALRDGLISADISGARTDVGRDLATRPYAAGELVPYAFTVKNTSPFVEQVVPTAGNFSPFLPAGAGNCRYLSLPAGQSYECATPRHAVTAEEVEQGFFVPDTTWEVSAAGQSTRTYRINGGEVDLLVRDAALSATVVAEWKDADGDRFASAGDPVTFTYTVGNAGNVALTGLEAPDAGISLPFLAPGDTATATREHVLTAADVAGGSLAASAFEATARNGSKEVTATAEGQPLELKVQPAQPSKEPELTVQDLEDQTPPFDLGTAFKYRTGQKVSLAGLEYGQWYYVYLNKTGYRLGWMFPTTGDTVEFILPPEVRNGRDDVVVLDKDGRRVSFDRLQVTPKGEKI
Nature of the test: colorimetric neuraminidase assay (sialoside hydrolysis), A. ureafaciens. The test is classed as biochemical. Particulars: 37° C.; for rate of hydrolysis (time course): A. U. neuraminidase, 0.75 mM sialoside, 0-120 min, FIGS. 1 and 3 panel A; for Vmax: A. ureafaciens neuraminidase, sialoside as substrate, 20 min, Lineweaver-Burk.

The subject of test [2] is Clostridium perfringens neuraminidase. In kind it is biochemical. Particulars: for Vmax: C. perfringens neuraminidase, sialoside as substrate, 20 min, Lineweaver-Burk; for Vmax / rate of hydrolysis (time course): 37° C.; for Km: read-out: Michaelis Constant Km; for rate of hydrolysis (time course): C. P. neuraminidase, 0.75 mM sialoside, 0-120 min, FIGS. 1 and 3 panel B.
Test [3] has as its target Vibrio cholerae neuraminidase (Vibrio cholerae serotype O1, UniProt P0C6E9). In kind it is biochemical. Particulars: for rate of hydrolysis (time course): 0.75 mM sialoside, 37° C., 0-120 min, FIGS. 1 and 3 panel C.
The target of a further test is C. P. neuraminidase. The test is classed as biochemical, Clostridium perfringens. Particulars: substrate 25, Dixon plots, 37° C.

Counter-ions that a name gives are not always drawn.

Vibrio cholerae neuraminidase, sequence (P0C6E9 25-781): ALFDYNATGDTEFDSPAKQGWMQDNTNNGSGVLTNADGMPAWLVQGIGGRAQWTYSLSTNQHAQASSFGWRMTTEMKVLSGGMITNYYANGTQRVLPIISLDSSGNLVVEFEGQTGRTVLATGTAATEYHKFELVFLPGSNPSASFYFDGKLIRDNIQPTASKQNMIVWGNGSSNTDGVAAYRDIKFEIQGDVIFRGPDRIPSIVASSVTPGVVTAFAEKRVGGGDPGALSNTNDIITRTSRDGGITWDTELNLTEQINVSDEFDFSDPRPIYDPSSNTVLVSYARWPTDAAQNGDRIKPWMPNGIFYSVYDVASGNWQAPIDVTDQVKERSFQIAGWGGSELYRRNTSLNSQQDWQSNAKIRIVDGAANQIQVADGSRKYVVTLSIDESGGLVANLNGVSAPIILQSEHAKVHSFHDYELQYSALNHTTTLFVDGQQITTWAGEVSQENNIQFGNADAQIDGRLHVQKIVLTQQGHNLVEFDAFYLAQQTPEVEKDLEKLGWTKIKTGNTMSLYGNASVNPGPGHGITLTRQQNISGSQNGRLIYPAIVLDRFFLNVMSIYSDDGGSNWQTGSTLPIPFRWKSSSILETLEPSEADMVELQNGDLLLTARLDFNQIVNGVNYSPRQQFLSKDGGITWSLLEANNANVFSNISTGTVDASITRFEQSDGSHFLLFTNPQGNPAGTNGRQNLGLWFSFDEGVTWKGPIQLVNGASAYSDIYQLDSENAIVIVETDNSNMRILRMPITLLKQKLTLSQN

Regarding `CC(=O)N[C@H]1[C@H]([C@H](O)[C@H](O)CO)O[C@@](O[C@H](C)[C@H]2O[C@@H](OCC[Si](C)(C)C)[C@H](O)[C@@H](O)[C@H]2O)(C(=O)O)C[C@@H]1O` [Compound 16a, Sodium salt of 5-acetamido-3,5-dideoxy-D-glycero-D-galacto-nonulopyranosylonate(2-6)-7-deoxy-β-D-glycero-D-galactoheptopyranosyl-OCH2 CH2 Si (CH3)3], in test [1], the “rate of hydrolysis (time course)” value is listed as “efficiently hydrolyzed” and the Vmax turned out to be 0.91 O.D./mU. Besides, in test [2], the Vmax amounted to 0.90 O.D./mU and the Km was determined as 2150 µM. For the same compound, in test [3], the Vmax worked out at 1.42 O.D./mU and the “rate of hydrolysis (time course)” value is “preferentially hydrolyzed”.
On to `CC(=O)N[C@H]1[C@H]([C@H](O)[C@H](O)CO)O[C@@](O[C@@H](C)[C@H]2O[C@@H](OCC[Si](C)(C)C)[C@H](O)[C@@H](O)[C@H]2O)(C(=O)O)C[C@@H]1O` [Compound 16b, Sodium salt of 5-acetamido-3,5-dideoxy-D-glycero-D-galacto-nonulopyranosylonate(2-6)-7-deoxy-α-L-glycero-D-galactoheptopyranosyl-OCH2 CH2 Si (CH3)3], for which the “rate of hydrolysis (time course)” value in test [1] is on record as “little hydrolysis”; in test [2], “hydrolyzed very slowly”. Moreover, the Vmax in test [1] is recorded as 0.05 O.D./mU; in test [2] it was 0.22 O.D./mU; in test [3], 0.37 O.D./mU. In addition, the Km in test [2] came to 3200 µM.
On to `CC(=O)N[C@H]1[C@H]([C@H](O)[C@H](O)CO)O[C@@](O[C@H](C)[C@H]2O[C@@H]3OC(C)(C)O[C@@H]3[C@H]3OC(C)(C)O[C@H]32)(C(=O)O)C[C@@H]1O` [Compound 19a, Sodium salt of 5-acetamido-3,5-dideoxy-D-glycero-D-galacto-nonulopyranosylonic acid (2-6)-1,2;3,4-di-O-isopropylidene-7-deoxy-α-D-glycero-D-galactoheptopyranose], for which the “rate of hydrolysis (time course)” value in test [1] was “no effect on the hydrolysis”; in test [2], “detrimental effect”; in test [3] it was “no effect on the hydrolysis”.
Regarding `CC(=O)N[C@H]1[C@H]([C@H](O)[C@H](O)CO)O[C@@](O[C@@H](C)[C@H]2O[C@@H]3OC(C)(C)O[C@@H]3[C@H]3OC(C)(C)O[C@H]32)(C(=O)O)C[C@@H]1O` [Compound 19b, Sodium salt of 5-acetamido-3,5-dideoxy-D-glycero-D-galacto-nonulopyranosylonic acid (2-6)-1,2;3,4-di-O-isopropylidene-7-deoxy-α-D-glycero-D-galactoheptopyranose], the “rate of hydrolysis (time course)” value in test [2] and in test [3] was “inactive” throughout.
Consider `CC(=O)NC1C(O)CC(SC(C)C2OC(O)C(O)C(O)C2O)(C(=O)O)OC1C(O)C(O)CO` [Compound 22a, Sodium salt of 5-acetamido-3,5-dideoxy-D-glycero-D-galacto-nonulopyranosylonic acid (2-S-6) -7-deoxy-D-glycero-D-galactoheptopyranose], for which the Ki at C. P. neuraminidase was found to be 1 mM.
For `CC(=O)NC1C(O)CC(OCC2OC(OCC[Si](C)(C)C)C(O)C(O)C2O)(C(=O)O)OC1C(O)C(O)CO` (centres unmarked) [Compound 23a, αDNeuAc (2-6) βDGal-OCH2 CH2 Si (CH3)3, reference compound], in test [1], the “rate of hydrolysis (time course)” value was “efficiently hydrolyzed” and the Vmax was 0.7 O.D./mU. Besides, in test [2], the “rate of hydrolysis (time course)” value is listed as “faster than the tg sialoside 16a”, the Vmax was determined as 0.88 O.D./mU and the Km stood at 650 µM. Further, in test [3], the Vmax was 2.2 O.D./mU and the “rate of hydrolysis (time course)” value is listed as “most preferred substrate”.
As to `CC(=O)N[C@H]1[C@H]([C@H](O)[C@H](O)CO)O[C@@](OC[C@H]2O[C@@H]3OC(C)(C)O[C@@H]3[C@H]3OC(C)(C)O[C@H]32)(C(=O)O)C[C@@H]1O` [Compound 23b, reference compound], in test [1], the “rate of hydrolysis (time course)” value is given as “more efficiently hydrolyzed” and the Vmax came to 0.73 O.D./mU. In test [2], the “rate of hydrolysis (time course)” value is “more efficiently hydrolyzed”, the Vmax came to 1.70 O.D./mU and the Michaelis constant (Km) was found to be 1440 µM. Also, in test [3], the Vmax is on record as 4.5 O.D./mU and the “rate of hydrolysis (time course)” value is on record as “more efficiently hydrolyzed”.
